# Where “and” joins values, the source holds several entries; their conditions need not be identical. Equal entries are not always repeated.
# Tests used:
# hCBS Q222A = biological target: T1, hCBS Q222A (Homo sapiens, UniProt P35520, Q222A); assay: purified hCBS mutant enzyme assay; format: biochemical
# T1 construct: hCBS-413 (a C-terminal truncated hCBS 1–413); GST (N); made in house; host or cells: E. coli BL21
# T1 sequence (P35520 1-413 Q222A): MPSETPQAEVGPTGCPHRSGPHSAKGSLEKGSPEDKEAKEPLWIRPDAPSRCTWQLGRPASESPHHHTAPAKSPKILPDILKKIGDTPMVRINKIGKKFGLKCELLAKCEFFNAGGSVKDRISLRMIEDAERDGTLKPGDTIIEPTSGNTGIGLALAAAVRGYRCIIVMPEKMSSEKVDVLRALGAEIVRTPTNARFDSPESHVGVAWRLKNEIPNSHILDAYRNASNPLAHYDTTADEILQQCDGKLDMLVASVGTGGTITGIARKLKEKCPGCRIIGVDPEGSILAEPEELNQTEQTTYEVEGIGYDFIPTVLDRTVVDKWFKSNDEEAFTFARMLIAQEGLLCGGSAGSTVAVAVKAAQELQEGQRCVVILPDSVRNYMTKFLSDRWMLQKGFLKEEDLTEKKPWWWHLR
# Method: (§1) The IC50 values of CH004 for hCBS-413, hCBS-413 mutants, hCBS-FL, hCSE or hDDC were determined according to the standard assay conditions otherwise indicated.
# Figure S6. […] HEK293T cells stably expressing CBS Q222A mutant (293T-CBS Q222A) were treated with 0 (DMSO control), 5 or 10 μM CH004 for 8 h before staining with the AzMC to detect H2S. The overlaid images of fluorescent and bright-field images are shown in the left panel, and the corresponding fluorescent (blue, H2S) and bright-field images are shown in the middle and right panels, respectively. Bars: 50 μm. [picture] Figure S7. The CH004-insensitive CBS Q222A mutant can be inhibited by HA. (A) HEK293T cells stably expressing CBS Q222A mutant (293T-CBS Q222A) were treated with 0 (DMSO, control), 5 or 10 μM of CH004, 1 mM or 2 mM of HA for 8 h before staining with the AzMC to detect H2S. The overlaid images of fluorescent and bright-field images are shown in the upper panel, and the corresponding fluorescent (blue, H2S) and bright-field images are shown in the middle and lower panels, respectively. Bars: 50 μm. (B) Quantification of the mean fluorescent density of H2S (blue). The intensity of blue light of the fluorescent images was quantified by ImageJ software, quantified and deduced the background signal in HEK293T-EV cells (Supplementary Figure S3B), normalized by the corresponding cell area and expressed as percentages of control (DMSO group, 100%). Means ± SDs (n=3). One-way ANOVA with Bonferroni post-tests was used for the analysis. *, p< 0.05; **, p< 0.01; n.s. no significance. The images are one representative from three independent experiments. (C) The inhibitory effect of 1 mM HA on purified CBS Q222A mutant. The assay was performed using 60 mM Cys and 1.2 μM CBS-413 Q222A mutant. The data were expressed as percentages of control (DMSO, 100%). Means ± SDs (n=4). [picture]
# Table S2. Inhibitory effects of CH004 on hCBS WT and mutants.
# HepG2 cells = assay: intracellular total glutathione (Cayman kit); format: cell-based, human; conditions: 24 h
# Method: Then, the cells from two wells were collected by cell scraper and washed once with PBS. The intracellular total glutathione (GSH) was measured with a commercial glutathione assay kit under the standard protocol (Cayman Chemical, Ann Arbor, USA). […] Supernatant was then collected after centrifugation at 12,000 × g for 15 min at 4 °C before the deproteination by adding an equal volume of 2.5 M metaphosphoric (MPA, Sigma). After the incubation for 5 min, the mixture was centrifuged at 3000 × g for 5 min. The supernatant was collected and added appropriate amount of 4 M triethanolamine (Sigma, 50 μl per 1 ml of the supernatant). The deproteinated and neutralized supernatant was used for the determination of the amount of total GSH by incubating with the assay reagents (from the kit) in a 96-well plate. After an incubation of 25 min, the absorbance at 405 nm was recorded and converted into the amount of GSH with a standard curve.
# hCBS-FL = biological target: T2, hCBS-FL (Homo sapiens, UniProt P35520); assay: purified hCBS full-length enzyme assay; format: biochemical; parameters: human CBS or hCSE full-length (CBS-FL or CSE) was subcloned into pGEX-KG, pcDNA3 or pCDH vector; GST (N); made in house; host or cells: E. coli BL21; conditions: standard conditions
# T2 sequence (P35520 1-551): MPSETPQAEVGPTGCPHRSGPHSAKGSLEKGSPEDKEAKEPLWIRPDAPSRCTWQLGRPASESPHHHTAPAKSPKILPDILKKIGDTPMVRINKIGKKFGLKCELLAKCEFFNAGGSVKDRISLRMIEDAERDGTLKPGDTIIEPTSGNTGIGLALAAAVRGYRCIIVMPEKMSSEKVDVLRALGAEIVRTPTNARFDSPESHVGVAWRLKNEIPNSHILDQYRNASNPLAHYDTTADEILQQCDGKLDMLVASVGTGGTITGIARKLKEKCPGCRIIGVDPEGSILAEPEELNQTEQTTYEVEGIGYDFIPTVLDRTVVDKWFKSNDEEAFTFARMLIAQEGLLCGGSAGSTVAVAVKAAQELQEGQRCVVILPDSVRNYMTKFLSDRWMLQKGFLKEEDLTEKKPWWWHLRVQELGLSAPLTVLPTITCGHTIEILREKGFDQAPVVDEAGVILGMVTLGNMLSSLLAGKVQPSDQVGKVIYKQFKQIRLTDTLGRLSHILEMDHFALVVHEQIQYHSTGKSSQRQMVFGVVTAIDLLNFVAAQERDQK
# Method: as §1
# ^2The IC50 were determined for hCBS-FL.
structure (smiles),measurement,setting,value
"Cn1nc(Cc2ccccc2)nc2c(=O)n(C)c(=O)nc1-2 [CH004, 3-benzyl-1,6-dimethylpyrimido[5,4-e][1,2,4]triazine-5,7(1H,6H)-dione]",IC50,hCBS Q222A,27600 ± 900 nM
same,"IC50 fold to WT, Q222A",hCBS Q222A,23
same,intracellular pool of glutathione (GSH),HepG2 cells,dose-dependently deplete
same,IC50,hCBS-FL,~590 nM and 590 nM

# — PMC6158189, “A pharmacological probe identifies cystathionine β-synthase as a new negative regulator for ferroptosis” (Cell Death & Disease, 2018)
